Assay results published in ChEMBL document CHEMBL2074507, “Transport of small organic cations in the rat liver. The role of the organic cation transporter OCT1” (Naunyn Schmiedebergs Arch Pharmacol, 1996).

T1: Solute carrier family 22 member 1 (Rattus norvegicus, UniProt Q63089)
T1 sequence (Q63089 whole entry): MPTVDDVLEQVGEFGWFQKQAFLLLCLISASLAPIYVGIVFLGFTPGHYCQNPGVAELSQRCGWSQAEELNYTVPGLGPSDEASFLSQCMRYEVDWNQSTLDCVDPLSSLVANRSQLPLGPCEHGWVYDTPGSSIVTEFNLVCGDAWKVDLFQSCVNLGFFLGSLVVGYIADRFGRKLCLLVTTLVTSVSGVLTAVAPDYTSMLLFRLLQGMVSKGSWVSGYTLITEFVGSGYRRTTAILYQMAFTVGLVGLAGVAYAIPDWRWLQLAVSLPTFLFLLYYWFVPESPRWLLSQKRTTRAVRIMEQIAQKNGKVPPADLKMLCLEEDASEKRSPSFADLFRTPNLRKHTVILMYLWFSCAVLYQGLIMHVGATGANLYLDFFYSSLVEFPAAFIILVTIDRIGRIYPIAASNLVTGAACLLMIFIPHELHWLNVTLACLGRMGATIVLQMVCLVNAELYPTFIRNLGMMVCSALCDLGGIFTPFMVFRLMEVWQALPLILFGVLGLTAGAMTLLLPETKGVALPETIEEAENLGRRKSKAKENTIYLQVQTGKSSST

B1: Solute carrier family 22 member 1 (Rattus norvegicus) (protein)
chain: T1 sequence (Q63089 whole entry)

Substrate: C[n+]1ccc(-c2ccccc2)cc1
Assay: TP_TRANSPORTER: uptake in OCT1-expressing HEK293 cells
Type: functional, cell-based

**Q.** For B1, which Km is on record?
**A.** 13 µM

Target: T1, Solute carrier family 22 member 1
Assay: TP_TRANSPORTER: inhibition of MPP+ uptake in OCT1-expressing HEK293 cells
Type: functional, cell-based

**Q.** Which Ki does the source give for `Clc1cccc(Cl)c1N=C1NCCN1` [CLONIDINE] here?
**A.** 1400 nM

**Q.** With `CC(C)N1/C(=C\c2cc[n+](C(C)C)c3ccccc23)C=Cc2ccccc21` [DISPROCYNIUM24] as the molecule, how does the Ki read?
**A.** 110 nM

**Q.** Which Ki does the source give for `C[C@]12C[C@H](O)[C@H]3[C@@H](CCC4=CC(=O)CC[C@@]43C)[C@@H]1CC[C@@H]2C(=O)CO` [CORTICOSTERONE] here?
**A.** 72000 nM

**Q.** How did the Ki turn out when `CC[n+]1c(CC2C=C(C)N=C(c3ccccc3)N2C)ccc2ccccc21` (configuration not stated) [Cyanine-863] was run?
**A.** 670 nM

**Q.** With `COc1cc(C(O)CNC(C)C)ccc1O` (configuration not stated) [METIPRENALINE] as the molecule, how does the Ki read?
**A.** 25000 nM

**Q.** For `CCN1/C(=C/c2ccc3ccccc3[n+]2CC)C=Cc2ccccc21`, which Ki is on record?
**A.** 500 nM
